# Results from patent US5321037A, “Isoxazole derivatives for use as cerebro-active drugs and central muscle relaxants” (Sankyo Company, Limited, priority 1986, dated 1994).
# Structures can show the parent of a compound that is named as a salt. Where two headings read alike, the source gives them in different places.
# Tests used:
# spinal reflex in cats = experiment: Effect on spinal reflex in cats; assay type: in vivo, cat; settings: for Mechanism shown by spinal reflexes: in vivo
# Description: Adult cats weighing 3.0 to 4.5 kg each were used. After induction of anesthesia with ether, the animal was anesthetized by intravenous injection of 50 mg/kg of a-chloralose. After the trachea was cannulated, the animal was fixed on a stereotaxic apparatus, and the lumbosacral spinal cord was exposed by laminectomy from L3 to S1. The ventral roots of the right side were cut from L6 to S1 as distal as possible and the cut ends were ligated with cotton thread previously immersed in Ringer's solution. The exposed spinal cord was covered with warmed mineral oil and maintained at 37° C. The ventral root, either L7 or S1, was fixed on a pair of platinum wire electrodes. A pair of collar-type electrodes was implanted on the ipsilateral tibial nerve and the saphenous nerve, for stimulation. After completion of all these operations, the cat was immobilized with pancronium bromide (0.5 mg/kg, i.v.) and maintained by artificial respiration (40/minute). Recording was started at least 2 hours after withdrawal of ether anesthesia. A single square pulse (0.01 to 0.1 msecond pulse width, supramaximal intensity) was applied to the nerve at a frequency of 0.3 Hz from an electronic stimulator. […] In a similar manner to Experiment 2, the blood pressure, heart beat and body temperature of the animal were recorded and monitored. Compounds to be tested were also administered in a similar manner.
# [1] = test system: ischemia-induced neurological symptoms in SHR SP; experiment: Improvement in ischemia-induced neurological symptoms in Spontaneously Hypertensive Rats Stroke Prone (SHR SP) caused by ligation of the bilateral common carotid arteries; assay type: in vivo, rat (SHR SP); settings: 100 mg/kg
# Description: The test animals employed were male adult SHR SPs (13 or 15 weeks old). They were used in groups each consisting of about 10 animals. Under halothane anesthesia, both common carotid arteries of each animal were ligated to prepare a brain ischemia model. The halothane anesthesia was stopped immediately after the ligation, and then the time taken to recover the righting reflex, the onset time of convulsions and the survival time were determined. The test solution was prepared in the same manner as described in Experiment 1 and was administered to the animal intraperitoneally 30 minutes before the ligation. A 0.5% CMC solution was administered to the control group in the same manner. The statistical analysis was carried out in a similar manner to that in Experiment 1. The statistical analysis of the survival rate was carried out by the X^2 test.
# [2] = test system: decerebrate rigidity (cats); experiment: Suppression of decerebrate rigidity (cats); assay type: in vivo, cat
# Description: Adult cats each weight 3.0 to 4.5 kg were used. Under ether anesthesia, the trachea was cannulated and the common carotid arteries were ligated at both sides. The cat was decerebrated by suction at the precollicular level. Ether anesthesia was then immediately discontinued. A pair of needle electrodes was inserted into the neck muscle in order to pick up any EMG muscular discharges. The EMG discharge was amplified and recorded on a pen-writing recorder, along with an integration of the EMG discharge. Recording was started at least 2 hours after withdrawal of anesthesia. Blood pressure induced from the femoral artery, as well as body temperature and heart beat, were recorded and monitored throughout the experiment.
# After stable EMG discharges were obtained, the test compounds suspended in 0.5% CMC solution were administered into the duodenum through a previously inserted cannula. The effect of the test compound was expressed as the ratio of the integrated EMG discharge after administration relative to the value before administration.
# thiopental anesthesia = experiment: Potentiation of thiopental anesthesia (mice); assay type: in vivo, mouse (ddY strain); settings: for Anesthesia time: thiopental 30 mg/kg after one hour
# Description: In the test method, male adult mice of ddY strain each weighing 20 to 30 g were used as divided groups each made up of 5 to 7 mice. Test compounds suspended in 0.5% CMC solution were orally administered. After one hour, thiopental (30 mg/kg) was injected into the tail vein, and the time required for the mouse to recover the righting reflex was measured.
# [3] = test system: decerebrate rigidity in rats; experiment: Suppression of decerebrate rigidity in rats; assay type: in vivo, rat
# Description: The suppression of decerebrate rigidity in laboratory animals, such as rats, is a well known model for control of human spasticity and/or rigidity.
# In the test method, a rat was anesthetized with halothane and fixed on a stereotaxic apparatus (SR-5, Narishige). In accordance with the brain atlas by Pellegrino et al., [L. J. Pellegrino, A. S. Pellegrino & A. J. Cushman: A Stereotaxic Atlas of the Rat Brain, Plenum Press, New York and London (1967)], an electrode 0.7 mm in diameter, which was insulated except for 1 mm at the tip, was inserted bilaterally into the midbrain reticular formation (AP: 0, L: ±1.5, H: -3.0). A clip serving as the reference electrode was fixed on the temporal muscle. Through these electrodes, a high frequency electric current (100 KHz, 10 to 20 mA) was applied from a lesion generator (Glass Co., LM4A) for 2 to 3 minutes to cauterize electrically this brain region.
# The rat was then immediately set free from the stereotaxic apparatus. A polyethylene cannula was inserted into the duodenum and fixed with an acrylic resin (Aron Alfa, Sankyo Co., Ltd.). After completion of these operations, halothane anesthesia was immediately discontinued.
# After 1.5 hours, when the animal awoke from the anesthesia, the rat was fixed on an apparatus devised in our laboratory for a hind leg fixation. Both hind legs were fixed at the anterior part of the ankle joints. Both hindlimb paws were then pushed in 4 mm for 6 seconds in every minute. The resulting repulsive tension was drawn on a polygraph through a strain gauge.
# The test compounds were suspended in a 0.5% w/v CMC (carboxymethyl cellulose) aqueous solution and were administered orally (p.o.) or intraperitoneally (i.p.).
# The results are summarized in the following Table 7, where the compounds of the present invention are identified by the number of the foregoing Example in which each was prepared, Compound X is the known compound eperisone hydrochloride, and Compound Y is the known compound afloqualone.
# [4] = 100 mg/kg, administered as in Experiment 2
# [5] = 100 mg/kg, after administration
# [6] = Rattus norvegicus, ip, 50 mg/kg i.p., read-out: Maximum inhibition
# [7] = Rattus norvegicus, po, 30 mg/kg p.o., read-out: Maximum inhibition
# [8] = Rattus norvegicus, po, 50 mg/kg p.o., read-out: Maximum inhibition
# [9] = Rattus norvegicus, po, 100 mg/kg p.o., read-out: Maximum inhibition
# [10] = Rattus norvegicus, po, read-out: Maximum inhibition
smiles,measurement,setting,value
O=c1c(Cl)c(-c2ccccc2)on1CC(O)CN1CCOCC1 (centres unmarked) [Compound 2a],Duration of the effect on spinal reflexes,spinal reflex in cats; 100 mg/kg,about 2 hours
same,Monosynaptic reflex,spinal reflex in cats; [4],little affected
same,Polysynaptic reflex,spinal reflex in cats; [4],remarkably inhibited
same,Spino-bulbo-spinal reflex,spinal reflex in cats; [4],remarkably inhibited
same,Onset of the effect on spinal reflexes,spinal reflex in cats; [5],5 min
same,Time of maximum effect on spinal reflexes,spinal reflex in cats; [5],30 min
same,Mechanism shown by spinal reflexes,spinal reflex in cats,interneuron blockers
same,"Onset time of convulsions and survival time, in words",[1],"prolonged onset time of convulsions, survival time significantly"
same,Inhibition of decerebrate rigidity,"[2]; 100 mg/kg intraduodenal, 5 minutes after administration",About 30%
same,Inhibition of decerebrate rigidity,"[2]; 100 mg/kg intraduodenal, 1 hour after administration",about 65%
same,Duration of inhibitory effects,"[2]; 100 mg/kg intraduodenal, throughout the observation period",≥ 2 h
same,Side effects and duration of action compared with eperisone hydrochloride,[2]; compared with eperisone hydrochloride,weaker in side effects and of longer action than eperisone hydrochloride
same,Anesthesia time,thiopental anesthesia; 100 mg/kg p.o.,329.1 ± 81.2 s
same,"Drowsiness (the adverse effect), implied",thiopental anesthesia; compared with afloqualone,induce drowsiness (the adverse effect) less than afloqualone
same,"Prolongation of the duration of thiopental-induced anesthesia, in words",thiopental anesthesia; in comparison with eperisone hydrochloride,did not significantly prolong the duration of thiopental-induced anesthesia
same,Duration of the effect,[3]; 30 mg/kg p.o.,> 90 min
same,Onset of the effect,[3]; 30 mg/kg p.o.,5 min
same,Duration of the effect,[3]; 50 mg/kg i.p.,> 120 min
same,Onset of the effect,[3]; 50 mg/kg i.p.,10 min
same,Duration of the effect,[3]; 50 mg/kg p.o.,> 90 min
same,Onset of the effect,[3]; 50 mg/kg p.o.,5 min
same,Duration of the effect,[3]; 100 mg/kg p.o.,> 90 min
same,Onset of the effect,[3]; 100 mg/kg p.o.,5 min
same,inhibition in vivo at 50 mg/kg,[3]; [6],50%
same,inhibition in vivo at 30 mg/kg,[3]; [7],55%
same,inhibition in vivo at 50 mg/kg,[3]; [8],90%
same,inhibition in vivo at 100 mg/kg,[3]; [9],100%
Cc1cc(=O)n(CC(O)CN2CCOCC2)o1 (centres unmarked) [Compound 3a],Duration of the effect,[3]; 50 mg/kg i.p.,50 min
same,Onset of the effect,[3]; 50 mg/kg i.p.,5 min
same,inhibition in vivo at 50 mg/kg,[3]; [6],30%
O=c1cc(-c2ccc(Cl)cc2)on1CC(O)CN1CCOCC1 (centres unmarked) [Compound 4a],Duration of the effect,[3]; 50 mg/kg i.p.,> 120 min
same,Onset of the effect,[3]; 50 mg/kg i.p.,5 min
same,inhibition in vivo at 50 mg/kg,[3]; [6],80%
CC(C)NCC(O)Cn1oc(-c2ccccc2)c(Cl)c1=O (centres unmarked) [Compound 5a],Duration of the effect,[3]; 50 mg/kg i.p.,> 120 min
same,Onset of the effect,[3]; 50 mg/kg i.p.,5 min
same,inhibition in vivo at 50 mg/kg,[3]; [6],95%
CC(C)NCC(O)Cn1oc(-c2ccccc2)cc1=O (centres unmarked) [Compound 6a],Duration of the effect,[3]; 50 mg/kg i.p.,60 min
same,Onset of the effect,[3]; 50 mg/kg i.p.,5 min
same,inhibition in vivo at 50 mg/kg,[3]; [6],30%
CC(C)NCC(O)Cn1oc(-c2ccc(Cl)cc2)cc1=O (centres unmarked) [Compound 7a],Duration of the effect,[3]; 50 mg/kg i.p.,60 min
same,Onset of the effect,[3]; 50 mg/kg i.p.,5 min
same,inhibition in vivo at 50 mg/kg,[3]; [6],75%
"CCc1ccc(C(=O)C(C)CN2CCCCC2)cc1 (centres unmarked) [Compound X, eperisone hydrochloride, reference compound]","Inhibition of decerebrate rigidity, in words",[2]; 50 mg/kg intraduodenal,decerebrate rigidity was inhibited
same,"Side effects (vomiting, changes in blood pressure and heart beat)",[2]; 50 mg/kg intraduodenal,induced vomiting immediately after administration accompanied with abrupt changes in blood pressure and heart beat
same,Time after administration at which decerebrate rigidity returned,[2]; 50 mg/kg intraduodenal,30 min
same,Anesthesia time,thiopental anesthesia; 10 mg/kg p.o.,182.0 ± 9.8 s
same,Anesthesia time,thiopental anesthesia; 30 mg/kg p.o.,192.0 ± 18.3 s
same,Anesthesia time,thiopental anesthesia; 100 mg/kg p.o.,247.0 ± 34.9 s
same,Duration of the effect,[3]; 10 mg/kg p.o.,> 30 min
same,Onset of the effect,[3]; 10 mg/kg p.o.,10 min
same,Duration of the effect,[3]; 30 mg/kg p.o.,45 min
same,Onset of the effect,[3]; 30 mg/kg p.o.,10 min
same,Duration of the effect,[3]; 50 mg/kg p.o.,30 min
same,Onset of the effect,[3]; 50 mg/kg p.o.,10 min
same,Duration of the effect,[3]; 100 mg/kg p.o.,60 min
same,Onset of the effect,[3]; 100 mg/kg p.o.,5 min
same,inhibition in vivo at 10 mg/kg,"[3]; Rattus norvegicus, po, 10 mg/kg p.o., read-out: Maximum inhibition",30%
same,inhibition in vivo at 30 mg/kg,[3]; [7],30%
same,inhibition in vivo at 50 mg/kg,[3]; [8],50%
same,inhibition in vivo at 100 mg/kg,[3]; [9],50%
"Cc1ccccc1-n1c(CF)nc2ccc(N)cc2c1=O [Compound Y, afloqualone, reference compound]",Anesthesia time,thiopental anesthesia; 10 mg/kg p.o.,242.0 ± 10.0 s
same,"Prolongation of the duration of anesthesia, in words",thiopental anesthesia; 30 mg/kg,did significantly prolong the duration of anesthesia
same,Anesthesia time,thiopental anesthesia; 30 mg/kg p.o.,4657.0 ± 636.6 s
same,Duration of the effect,[3]; 5 mg/kg p.o.,60 min
same,Onset of the effect,[3]; 5 mg/kg p.o.,10 min
same,Duration of the effect,[3]; 10 mg/kg p.o.,45 min
same,Onset of the effect,[3]; 10 mg/kg p.o.,10 min
same,Duration of the effect,[3]; 30 mg/kg p.o.,120 min
same,Onset of the effect,[3]; 30 mg/kg p.o.,10 min
same,inhibition in vivo at 5 mg/kg,[3]; [10],25%
same,inhibition in vivo at 10 mg/kg,[3]; [10],55%
same,inhibition in vivo at 30 mg/kg,[3]; [10],70%
"Cc1c(-c2ccccc2)on(CC(O)CN2CCOCC2)c1=O.Cl (centres unmarked) [Example 2, 2-(2-Hydroxy-3-morpholinopropyl)-4-methyl-5-phenyl-3-isoxazolone hydrochloride]",Duration of the effect,[3]; 100 mg/kg i.p.,> 90 min
same,Onset of the effect,[3]; 100 mg/kg i.p.,5 min
same,inhibition in vivo at 100 mg/kg,"[3]; Rattus norvegicus, ip, 100 mg/kg i.p., read-out: Maximum inhibition",60%
"Cc1c(OCC(O)CN2CCOCC2)noc1-c1ccccc1 (centres unmarked) [Example 5, 3-(2-Hydroxy-3-morpholinopropoxy)-4-methyl-5-phenylisoxazole]",Duration of the effect,[3]; 100 mg/kg p.o.,> 90 min
same,Onset of the effect,[3]; 100 mg/kg p.o.,5 min
same,inhibition in vivo at 100 mg/kg,[3]; [9],70%
"NC(=O)OCC(O)Cn1oc2ccc(Cl)cc2c1=O (centres unmarked) [Example 15, 2-(3-Carbamoyloxy-2-hydroxypropyl)-5-chloro-1,2-benzisoxazol-3-one]",Duration of the effect,[3]; 50 mg/kg i.p.,> 60 min
same,Onset of the effect,[3]; 50 mg/kg i.p.,5 min
same,inhibition in vivo at 50 mg/kg,[3]; [6],50%
"NC(=O)OCC(O)COc1ccc(Cl)cc1 (centres unmarked) [chlorphenesin carbamate, reference compound]","Effect on spinal reflexes, compared with Compounds 1a and 2a",spinal reflex in cats; 100 mg/kg,A similar effect was observed
same,Mechanism shown by spinal reflexes,spinal reflex in cats,interneuron blockers
